Assay results taken from publication PMC6667648 (Frontiers in Microbiology, 2019).
≈ marks a conversion by molar mass, not a printed value. Where “and” joins values, the source holds several entries; their conditions need not be identical. Equal entries are not always repeated. One block for each compound: values may come before it.

Experiments:
C. parapsilosis Y-1761 = test: microbe, parasite or virus in culture; format: cell-based; conditions: Lodderomyces parapsilosis, Y1761, 24-h incubation, mean of 3 replicates from 2 independent experiments, read-out: Minimum Inhibitory Concentration (MIC)
Description: (§1) Strains were obtained from American Type Culture Collection (ATCC, Manassas, VA) or the clinical isolate collection at Trideum Biosciences (Frederick, MD, USA). Bioluminescence strains of P. aeruginosa 19660, transfected with the Xen5 luciferase gene, and S. aureus ATCC® 49525™ (Wright), transfected with the Xen36 luciferase gene, were obtained from Perkin Elmer (Hopkinton, MA).
(§2) A single colony was aseptically picked from an agar overlay and released in 25–30 mL of pre-warmed trypticase soy broth in a culture flask. Each culture was incubated overnight in a 37°C incubator. […] Pathogen growth was measured by absorbance at 600 nm. Four replicas were included for each test agent concentration. […]

C. parapsilosis Y-1763 = test: microbe, parasite or virus in culture; format: cell-based; conditions: Lodderomyces parapsilosis, Y1763, 24-h incubation, mean of 3 replicates from 2 independent experiments, read-out: Minimum Inhibitory Concentration (MIC)
Description: as §1, §2

[1] = test system: mature (120 h) MRSA ATCC 1556 biofilm; format: cell-based, Staphylococcus aureus; conditions: ATCC 1556, 120 h
[2] = test system: 6 hr MRSA ATCC 1556 biofilm; format: cell-based, Staphylococcus aureus; conditions: ATCC 1556, 6 h
[3] = test system: preformed C. albicans biofilm; conditions: ref Woodburn et al., under review; cited from earlier work
[4] = test system: bioluminescent P. aeruginosa 19660; test: Bioluminescence time-kill assay; format: cell-based, Pseudomonas aeruginosa; conditions: antibiotics after 30 min incubation, triplicates, two independent experiments
Description: as §1
(§3) Non-invasive real-time evaluation of viability, mammalian, and bacterial cells, was performed using bioluminescent human keratinocytes (HaCaT, AddexBio, San Diego, CA) and murine L929 fibroblast cells (ATCC, Manassas, VA). The bioluminescent variants were constructed by transfection with a luciferase gene (RediFect Red-Fluc-Puromycin, Catalog #CL596002) (Hamblin et al., [2003]). […] Each concentration was performed in triplicate. Bioluminescence imaging was performed at pre-specified times (0, 15, and 30 min and 1, 3, 5, 8, and 24 h) and compared to concurrently run vehicle-controls. The 96-well plate was positioned on the stage (12.5-cm field of view) within the in vivo Imaging System (IVIS) imaging system (Caliper Life Sciences, Inc., Hopkinton, MA, USA), with an open emission filter, binning of 4, and f-stop 1, and a 1-min exposure time. The resultant photons emitted from the live cells were quantified using Living Image® software (version 4.3, Caliper Life Sciences, Inc.). […]

S. epidermis ATCC 51625 = test: microbe, parasite or virus in culture; format: cell-based, S. epidermidis; conditions: Staphylococcus epidermidis, ATCC51625; S. epidermis ATCC 51625; 24-h incubation; mean of 3 replicates from 2 independent experiments; read-out: Minimum Inhibitory Concentration (MIC)
Description: as §1, §2

A. baumannii 6043 = test: microbe, parasite or virus in culture; format: cell-based, Acinetobacter baumannii; conditions: Acinetobacter baumannii; A. baumannii 6043; 24-h incubation; mean of 3 replicates from 2 independent experiments; read-out: Minimum Inhibitory Concentration (MIC)
Description: as §1, §2

A. baumannii ATCC 17978 = test: microbe, parasite or virus in culture; format: cell-based, Acinetobacter baumannii; conditions: Acinetobacter baumannii, ATCC17978; A. baumannii ATCC 17978; 24-h incubation; mean of 3 replicates from 2 independent experiments; read-out: Minimum Inhibitory Concentration (MIC)
Description: as §1, §2

A. baumannii 6838 = test: microbe, parasite or virus in culture; format: cell-based, Acinetobacter baumannii; conditions: Acinetobacter baumannii; A. baumannii 6838; 24-h incubation; mean of 3 replicates from 2 independent experiments; read-out: Minimum Inhibitory Concentration (MIC)
Description: as §1, §2

E. cloacae 6054 = test: microbe, parasite or virus in culture; format: cell-based; conditions: Enterobacter cloacae; E. cloacae 6054; 24-h incubation; mean of 3 replicates from 2 independent experiments; read-out: Minimum Inhibitory Concentration (MIC)
Description: as §1, §2

E. cloacae 6053 = test: microbe, parasite or virus in culture; format: cell-based; conditions: Enterobacter cloacae; E. cloacae 6053; 24-h incubation; mean of 3 replicates from 2 independent experiments; read-out: Minimum Inhibitory Concentration (MIC)
Description: as §1, §2

P. aeruginosa 6186 = test: microbe, parasite or virus in culture; format: cell-based, Pseudomonas aeruginosa; conditions: Pseudomonas aeruginosa; P. aeruginosa 6186; 24-h incubation; mean of 3 replicates from 2 independent experiments; read-out: Minimum Inhibitory Concentration (MIC)
Description: as §1, §2

P. aeruginosa ATCC 27853 = test: microbe, parasite or virus in culture; format: cell-based, Pseudomonas aeruginosa; conditions: Pseudomonas aeruginosa, ATCC27853; P. aeruginosa ATCC 27853; 24-h incubation; mean of 3 replicates from 2 independent experiments; read-out: Minimum Inhibitory Concentration (MIC)
Description: as §1, §2

P. aeruginosa ATCC 19660 = test: microbe, parasite or virus in culture; format: cell-based, Pseudomonas aeruginosa; conditions: Pseudomonas aeruginosa, ATCC19660; P. aeruginosa ATCC 19660; 24-h incubation; mean of 3 replicates from 2 independent experiments; read-out: Minimum Inhibitory Concentration (MIC)
Description: as §1, §2

K. pneumonia ATCC 10031 = test: microbe, parasite or virus in culture; format: cell-based, Klebsiella pneumoniae; conditions: Klebsiella pneumoniae, ATCC10031; K. pneumonia ATCC 10031; 24-h incubation; mean of 3 replicates from 2 independent experiments; read-out: Minimum Inhibitory Concentration (MIC)
Description: as §1, §2

K. pneumonia 6069 = test: microbe, parasite or virus in culture; format: cell-based, Klebsiella pneumoniae; conditions: Klebsiella pneumoniae; K. pneumonia 6069; 24-h incubation; mean of 3 replicates from 2 independent experiments; read-out: Minimum Inhibitory Concentration (MIC)
Description: as §1, §2

K. pneumonia 6066 = test: microbe, parasite or virus in culture; format: cell-based, Klebsiella pneumoniae; conditions: Klebsiella pneumoniae; K. pneumonia 6066; 24-h incubation; mean of 3 replicates from 2 independent experiments; read-out: Minimum Inhibitory Concentration (MIC)
Description: as §1, §2

[5] = test system: bioluminescent S. aureus 49525; test: Bioluminescence time-kill assay; format: cell-based, Staphylococcus aureus; conditions: antibiotics after 30 min incubation, triplicates, two independent experiments
Description: as §1, §3

S. aureus B-767 = test: microbe, parasite or virus in culture; format: cell-based, Staphylococcus aureus; conditions: Staphylococcus aureus, B767; S. aureus B-767; 24-h incubation; mean of 3 replicates from 2 independent experiments; read-out: Minimum Inhibitory Concentration (MIC)
Description: as §1, §2

MRSA 6313 = test: microbe, parasite or virus in culture; format: cell-based, Staphylococcus aureus; conditions: Staphylococcus aureus; MRSA 6313; 24-h incubation; mean of 3 replicates from 2 independent experiments; read-out: Minimum Inhibitory Concentration (MIC)
Description: as §1, §2

S. aureus 6061 = test: microbe, parasite or virus in culture; format: cell-based, Staphylococcus aureus; conditions: Staphylococcus aureus; S. aureus 6061; 24-h incubation; mean of 3 replicates from 2 independent experiments; read-out: Minimum Inhibitory Concentration (MIC)
Description: as §1, §2

MRSA 6381 = test: microbe, parasite or virus in culture; format: cell-based, Staphylococcus aureus; conditions: Staphylococcus aureus; MRSA 6381; 24-h incubation; mean of 3 replicates from 2 independent experiments; read-out: Minimum Inhibitory Concentration (MIC)
Description: as §1, §2

MRSA ATCC 33592 = test: microbe, parasite or virus in culture; format: cell-based, Staphylococcus aureus; conditions: Staphylococcus aureus; MRSA ATCC 33592; 24-h incubation; mean of 3 replicates from 2 independent experiments; read-out: Minimum Inhibitory Concentration (MIC)
Description: as §1, §2

- MIC (C. parapsilosis Y-1761): 1 µM and 1.08 µg/mL
- MIC (C. parapsilosis Y-1763): 1 µM and 1.08 µg/mL
Structure (SMILES): C[C@@H]1[C@H](O)[C@@H](C)/C=C/C=C/C=C/C=C/C=C/C=C/C=C/[C@H](O[C@@H]2O[C@H](C)[C@@H](O)[C@H](N)[C@@H]2O)C[C@@H]2O[C@](O)(C[C@@H](O)C[C@@H](O)[C@H](O)CC[C@@H](O)C[C@@H](O)CC(=O)O[C@H]1C)C[C@H](O)[C@H]2C(=O)O [Amphotericin b, amphotericin B]

- EC90 (concentration to reduce biofilm by 90%) [1]: ~ 100 μg/mL
- EC90, biofilm CFU [2]: > 100 µg/mL
Structure (SMILES): CCCCCCCCCC(=O)N[C@@H](Cc1c[nH]c2ccccc12)C(=O)N[C@H](CC(N)=O)C(=O)N[C@@H](CC(=O)O)C(=O)N[C@@H]1C(=O)NCC(=O)N[C@@H](CCCN)C(=O)N[C@@H](CC(=O)O)C(=O)N[C@H](C)C(=O)N[C@@H](CC(=O)O)C(=O)NCC(=O)N[C@H](CO)C(=O)N[C@@H]([C@H](C)CC(=O)O)C(=O)N[C@@H](CC(=O)c2ccccc2N)C(=O)O[C@@H]1C [daptomycin]

Structure (SMILES): OC(Cn1cncn1)(Cn1cncn1)c1ccc(F)cc1F [fluconazole]
- Killing fungi in preformed C. albicans biofilm and preventing biofilm formation [3]: markedly ineffective

Structure (SMILES): NC[C@H]1O[C@H](O[C@H]2[C@H](O)[C@@H](O[C@H]3O[C@H](CO)[C@@H](O)[C@H](N)[C@H]3O)[C@H](N)C[C@@H]2N)[C@H](N)C[C@@H]1O [Tobramycin, tobramycin]
- Bactericidal activity in time-kill assay [4]: no trace of antibacterial activity
- MIC (S. epidermis ATCC 51625): 4.3 µM (≈ 2.01 µg/mL)
- MIC (A. baumannii 6043): 68.5 µM (≈ 32 µg/mL)
- MIC (A. baumannii ATCC 17978): 4.3 µM (≈ 2.01 µg/mL)
- MIC (A. baumannii 6838): 4.3 µM (≈ 2.01 µg/mL)
- MIC (E. cloacae 6054): 137 µM (≈ 64.1 µg/mL)
- MIC (E. cloacae 6053): 68.5 µM (≈ 32 µg/mL)
- MIC (P. aeruginosa 6186): > 274 µM
- MIC (P. aeruginosa ATCC 27853): 4.3 µM (≈ 2.01 µg/mL)
- MIC (P. aeruginosa ATCC 19660): > 274 µM
- MIC (K. pneumonia ATCC 10031): 4.3 µM (≈ 2.01 µg/mL)
- MIC (K. pneumonia 6069): 4.3 µM (≈ 2.01 µg/mL)
- MIC (K. pneumonia 6066): 8.6 µM (≈ 4.02 µg/mL)
- Bactericidal activity in time-kill assay [5]: no trace of antibacterial activity
- MIC (S. aureus B-767): > 274 µM
- MIC (MRSA 6313): > 274 µM
- MIC (S. aureus 6061): 8.6 µM (≈ 4.02 µg/mL)
- MIC (MRSA 6381): 274 µM (≈ 128 µg/mL)
- MIC (MRSA ATCC 33592): 137 µM (≈ 64.1 µg/mL)
